Laboratory results reported in US7005417B1, “Echinocandin derivatives, method for preparing same and use as antifungal agents” (Aventis Pharma S.A., priority 1999, dated 2006).

Tested on: Glucan Synthase of Candida albicans
Assay: Inhibition of the Glucan Synthase of Candida albicans
Assay type: biochemical
Conditions: Candida albicans membranes, 14C-UDP glucose, 25° C. for 1 hour
Protocol: A—Inhibition of the Glucan Synthase of Candida albicans
Candida albicans membranes were purified according to the process described by Tang et al Antimicrob. Agents Chemother 35, 99–103, 1991. 22.5 μg of membrane proteins are incubated in a mixture of 2 Mm of 14C-UDP glucose (specific activity=0.34 mCi./mmol, 50 μg of α-amylase, 1 Mm of dithiotreitol (DTT), 1 Mm EDTA, 100 Mm NaF, 7 μM of GTP-γ-S, 1 M of sucrose and 50 Mm of Tris-HCL (pH 7.8) in a volume of 100 μl. The medium is incubated at 25° C. for 1 hour and the reaction is terminated by adding TCA at a final concentration of 5%. The reaction mixture is transferred onto a pre-humidified glass fibre filter. The filter is washed, dried and its radioactivity is counted.
Mulundocandine is used as a positive control.
Control of the vehicle is carried out with the same quantity of 1% DMSO.

1-[4-[(2-aminoethyl)amino]-N2-[[4-[5-[4-pentyloxy)-phenyl]-3-isoxazolyl]-phenyl]-carbonyl]-L-ornithine]-4-(4-hydroxyphenyl)-L-threonine]-5-L-serine-echinocandine B [Example 1]
Inhibition of the Glucan Synthase of Candida albicans: good activity
